Here are results for one compound from patent US20100190711A1, “BIG GASTRIN I AS A THERAPEUTIC AGENT” (priority 2007, published 2010).

As usually defined, the % inhibition is the percentage by which the read-out fell short of the control.

The test system of the assay is drug-resistant Mycobacterium tuberculosis. Particulars: Mycobacterium tuberculosis resistant to PAS, streptomycin and INH; peptide 10 micrograms per ml; seven days.

Where a SMILES comes first, the peptide text is derived from it. [ ]: non-standard residue; d: D form. pGlu = O=C1CC[C@@H](C(=O)O)N1

On to `CSCC[C@H](NC(=O)[C@H](Cc1c[nH]c2ccccc12)NC(=O)CNC(=O)[C@H](Cc1ccc(O)cc1)NC(=O)[C@H](C)NC(=O)[C@H](CCC(=O)O)NC(=O)[C@H](CCC(=O)O)NC(=O)[C@H](CCC(=O)O)NC(=O)[C@H](CCC(=O)O)NC(=O)[C@H](CCC(=O)O)NC(=O)[C@H](CC(C)C)NC(=O)[C@H](Cc1c[nH]c2ccccc12)NC(=O)[C@@H]1CCCN1C(=O)CNC(=O)[C@H](CCC(N)=O)NC(=O)[C@H](CCCCN)NC(=O)[C@H](CCCCN)NC(=O)[C@H](CO)NC(=O)[C@@H]1CCCN1C(=O)[C@H](CC(=O)O)NC(=O)[C@H](C)NC(=O)[C@@H](NC(=O)[C@H](CC(C)C)NC(=O)[C@H](Cc1c[nH]cn1)NC(=O)[C@@H]1CCCN1C(=O)[C@@H]1CCCN1C(=O)CNC(=O)[C@H](CCC(N)=O)NC(=O)[C@@H]1CCCN1C(=O)CNC(=O)[C@H](CC(C)C)NC(=O)[C@@H]1CCC(=O)N1)C(C)C)C(=O)N[C@@H](CC(=O)O)C(=O)N[C@@H](Cc1ccccc1)C(N)=O` [Big Gastrin I] ([pGlu]LGPQGPPHLVADPSKKQGPWLEEEEEAYGWMDF-NH2), for which the “% inhibition” value is on record as 100.0%.
